Data reported in ChEMBL document CHEMBL3132769, “Fragment growing to retain or alter the selectivity of anchored kinase hinge-binding fragments” (Medchemcomm, 2014).

Columns and labels:
[1] = target: Dual specificity tyrosine-phosphorylation-regulated kinase 1A (Rattus norvegicus) (UniProt Q63470); assay: Inhibition of rat full length DYRK1a expressed in Escherichia coli cell assessed as substrate phosphorylation using fluorescence-labelled peptides as substrate at 95 uM after 90 mins by microfluidic peptide phosphorylation assay
[2] = target: Serine/threonine-protein kinase MARK1 (Homo sapiens) (UniProt Q9P0L2); assay: Inhibition of human full length MARK1 expressed in baculovirus assessed as substrate phosphorylation using fluorescence-labelled peptides as substrate at 95 uM after 90 mins by microfluidic peptide phosphorylation assay
[3] = target: Ribosomal protein S6 kinase alpha-5 (Homo sapiens) (UniProt O75582); assay: Inhibition of human full length MSK1 expressed in baculovirus assessed as substrate phosphorylation using fluorescence-labelled peptides as substrate at 95 uM after 90 mins by microfluidic peptide phosphorylation assay
[4] = target: Serine/threonine-protein kinase MARK1 (Homo sapiens) (UniProt Q9P0L2); assay: Inhibition of human full length MARK1 expressed in baculovirus assessed as substrate phosphorylation using fluorescence-labelled peptides as substrate at 0.2 uM after 90 mins by microfluidic peptide phosphorylation assay
[5] = target: T1, Serine/threonine-protein kinase BRSK1 (Homo sapiens) (UniProt Q8TDC3); assay: Inhibition of human full length BRSK1 expressed in baculovirus assessed as substrate phosphorylation using fluorescence-labelled peptides as substrate at 0.2 uM after 90 mins by microfluidic peptide phosphorylation assay
T1 sequence (whole entry): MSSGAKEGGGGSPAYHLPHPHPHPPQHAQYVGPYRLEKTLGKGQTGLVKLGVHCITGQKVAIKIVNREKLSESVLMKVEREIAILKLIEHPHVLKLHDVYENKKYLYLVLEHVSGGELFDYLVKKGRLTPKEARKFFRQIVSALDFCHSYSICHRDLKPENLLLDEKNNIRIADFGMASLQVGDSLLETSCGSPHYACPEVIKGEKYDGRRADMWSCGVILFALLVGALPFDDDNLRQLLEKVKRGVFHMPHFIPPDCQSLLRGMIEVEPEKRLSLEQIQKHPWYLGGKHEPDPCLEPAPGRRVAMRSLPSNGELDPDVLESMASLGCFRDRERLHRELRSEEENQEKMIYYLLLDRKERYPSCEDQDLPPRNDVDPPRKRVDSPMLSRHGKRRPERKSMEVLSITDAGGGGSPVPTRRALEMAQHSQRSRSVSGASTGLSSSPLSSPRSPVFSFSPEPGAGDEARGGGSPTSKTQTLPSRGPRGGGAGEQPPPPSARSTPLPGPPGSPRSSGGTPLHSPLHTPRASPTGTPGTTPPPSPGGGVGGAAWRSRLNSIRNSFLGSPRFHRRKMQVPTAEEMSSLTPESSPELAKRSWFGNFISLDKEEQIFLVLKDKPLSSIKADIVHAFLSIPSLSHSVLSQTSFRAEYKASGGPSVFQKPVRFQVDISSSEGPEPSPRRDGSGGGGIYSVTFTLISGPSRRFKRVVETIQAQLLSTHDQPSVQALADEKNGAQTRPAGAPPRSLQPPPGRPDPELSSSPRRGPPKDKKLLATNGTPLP

[6] = target: Epidermal growth factor receptor (Homo sapiens) (UniProt P00533); assay: Inhibition of human EGFR catalytic domain expressed in baculovirus assessed as substrate phosphorylation using fluorescence-labelled peptides as substrate at 2 uM after 90 mins by microfluidic peptide phosphorylation assay
[7] = target: Fibroblast growth factor receptor 2 (Homo sapiens) (UniProt P21802); assay: Inhibition of human FGFR2 catalytic domain expressed in baculovirus assessed as substrate phosphorylation using fluorescence-labelled peptides as substrate at 420 uM after 90 mins by microfluidic peptide phosphorylation assay
[8] = target: Calcium/calmodulin-dependent protein kinase type II subunit delta (Homo sapiens) (UniProt Q13557); assay: Inhibition of human full length CAMK2D expressed in baculovirus assessed as substrate phosphorylation using fluorescence-labelled peptides as substrate at 420 uM after 90 mins by microfluidic peptide phosphorylation assay
[9] = target: T2, Serine/threonine-protein kinase D3 (Homo sapiens) (UniProt O94806); assay: Inhibition of human full length PKD3 expressed in baculovirus assessed as substrate phosphorylation using fluorescence-labelled peptides as substrate at 9 uM after 90 mins by microfluidic peptide phosphorylation assay
T2 sequence (whole entry): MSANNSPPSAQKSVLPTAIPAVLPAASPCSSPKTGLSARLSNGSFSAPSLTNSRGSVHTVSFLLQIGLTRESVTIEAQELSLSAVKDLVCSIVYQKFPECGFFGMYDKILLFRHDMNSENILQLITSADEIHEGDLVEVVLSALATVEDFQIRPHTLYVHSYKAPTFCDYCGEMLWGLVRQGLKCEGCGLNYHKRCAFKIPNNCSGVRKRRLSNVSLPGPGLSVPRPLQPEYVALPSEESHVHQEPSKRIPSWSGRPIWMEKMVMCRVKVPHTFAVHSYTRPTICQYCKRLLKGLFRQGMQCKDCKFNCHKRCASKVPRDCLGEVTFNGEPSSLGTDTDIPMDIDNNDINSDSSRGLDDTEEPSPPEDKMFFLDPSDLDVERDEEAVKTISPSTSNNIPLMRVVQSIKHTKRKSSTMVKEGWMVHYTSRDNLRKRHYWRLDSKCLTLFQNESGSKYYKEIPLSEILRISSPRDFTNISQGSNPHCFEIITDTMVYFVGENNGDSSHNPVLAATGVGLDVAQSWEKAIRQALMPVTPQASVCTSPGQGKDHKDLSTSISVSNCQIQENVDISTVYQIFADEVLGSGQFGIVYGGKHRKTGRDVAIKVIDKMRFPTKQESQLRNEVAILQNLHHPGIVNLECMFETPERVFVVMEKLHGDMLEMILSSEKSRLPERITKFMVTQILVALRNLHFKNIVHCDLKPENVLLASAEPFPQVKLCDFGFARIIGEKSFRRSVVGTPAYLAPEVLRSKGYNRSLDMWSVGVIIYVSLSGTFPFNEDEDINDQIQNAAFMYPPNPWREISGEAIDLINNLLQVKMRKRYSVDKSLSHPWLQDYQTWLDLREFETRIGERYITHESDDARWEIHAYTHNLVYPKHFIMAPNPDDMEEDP

[10] = target: Casein kinase I isoform alpha (Homo sapiens) (UniProt P48729); assay: Inhibition of human full length CSNK1A1 expressed in baculovirus assessed as substrate phosphorylation using fluorescence-labelled peptides as substrate at 70 uM after 90 mins by microfluidic peptide phosphorylation assay
Casein kinase I isoform alpha (Homo sapiens), sequence (P48729 2-337 limits assumed): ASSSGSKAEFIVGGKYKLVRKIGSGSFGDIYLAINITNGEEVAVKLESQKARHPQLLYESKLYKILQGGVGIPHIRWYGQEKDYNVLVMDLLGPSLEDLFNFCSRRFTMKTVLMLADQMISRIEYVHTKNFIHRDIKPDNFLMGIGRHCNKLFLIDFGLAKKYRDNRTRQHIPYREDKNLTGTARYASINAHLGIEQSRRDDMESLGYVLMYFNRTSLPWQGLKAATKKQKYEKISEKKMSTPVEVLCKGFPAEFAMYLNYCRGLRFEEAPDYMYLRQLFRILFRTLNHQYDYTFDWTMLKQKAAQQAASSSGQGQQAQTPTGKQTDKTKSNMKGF

Serine/threonine-protein kinase MARK1 (Homo sapiens), sequence (Q9P0L2 whole entry, looked up): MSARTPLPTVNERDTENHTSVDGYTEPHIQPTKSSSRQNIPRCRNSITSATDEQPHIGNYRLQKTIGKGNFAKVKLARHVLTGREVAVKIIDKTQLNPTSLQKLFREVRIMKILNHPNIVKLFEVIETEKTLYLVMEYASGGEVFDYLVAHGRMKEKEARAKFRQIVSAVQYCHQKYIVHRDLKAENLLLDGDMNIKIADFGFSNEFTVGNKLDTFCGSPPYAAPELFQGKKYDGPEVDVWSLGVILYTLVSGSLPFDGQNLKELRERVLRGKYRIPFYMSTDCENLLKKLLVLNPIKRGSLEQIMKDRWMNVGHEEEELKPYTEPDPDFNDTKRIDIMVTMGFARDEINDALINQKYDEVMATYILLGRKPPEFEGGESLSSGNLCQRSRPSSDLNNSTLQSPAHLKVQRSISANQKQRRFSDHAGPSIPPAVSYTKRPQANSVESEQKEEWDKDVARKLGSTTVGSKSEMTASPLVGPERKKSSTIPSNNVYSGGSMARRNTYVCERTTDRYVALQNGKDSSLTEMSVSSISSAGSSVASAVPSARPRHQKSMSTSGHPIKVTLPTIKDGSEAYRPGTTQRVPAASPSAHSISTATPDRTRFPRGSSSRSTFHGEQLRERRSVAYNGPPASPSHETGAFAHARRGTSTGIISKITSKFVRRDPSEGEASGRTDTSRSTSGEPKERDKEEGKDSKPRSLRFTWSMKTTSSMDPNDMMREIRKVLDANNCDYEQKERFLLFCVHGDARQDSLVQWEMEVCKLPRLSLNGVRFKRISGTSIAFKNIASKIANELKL
Fibroblast growth factor receptor 2 (Homo sapiens), sequence (P21802 22-821 limits assumed): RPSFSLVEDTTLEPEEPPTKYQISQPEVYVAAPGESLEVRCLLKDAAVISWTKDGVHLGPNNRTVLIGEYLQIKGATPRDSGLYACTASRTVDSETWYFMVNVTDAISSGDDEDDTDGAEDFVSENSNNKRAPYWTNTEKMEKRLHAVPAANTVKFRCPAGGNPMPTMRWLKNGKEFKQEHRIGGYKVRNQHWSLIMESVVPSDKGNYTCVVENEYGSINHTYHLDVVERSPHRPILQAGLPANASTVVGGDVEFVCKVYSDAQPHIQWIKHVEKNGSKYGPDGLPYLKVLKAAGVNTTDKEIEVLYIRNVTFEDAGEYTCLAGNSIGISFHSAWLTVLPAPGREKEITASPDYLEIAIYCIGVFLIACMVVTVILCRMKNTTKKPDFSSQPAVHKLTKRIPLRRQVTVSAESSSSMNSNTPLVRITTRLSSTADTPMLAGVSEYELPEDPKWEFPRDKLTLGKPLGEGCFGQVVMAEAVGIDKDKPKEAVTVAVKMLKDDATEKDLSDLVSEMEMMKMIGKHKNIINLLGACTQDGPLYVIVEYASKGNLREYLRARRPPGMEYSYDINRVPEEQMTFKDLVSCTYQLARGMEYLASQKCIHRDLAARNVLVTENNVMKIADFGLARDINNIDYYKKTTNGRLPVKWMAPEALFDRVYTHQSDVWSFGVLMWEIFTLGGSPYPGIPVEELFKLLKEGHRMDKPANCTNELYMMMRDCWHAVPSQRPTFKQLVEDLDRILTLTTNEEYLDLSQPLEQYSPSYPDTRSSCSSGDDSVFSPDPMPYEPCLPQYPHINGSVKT
Epidermal growth factor receptor (Homo sapiens), sequence (P00533 whole entry, the tested form may be a part): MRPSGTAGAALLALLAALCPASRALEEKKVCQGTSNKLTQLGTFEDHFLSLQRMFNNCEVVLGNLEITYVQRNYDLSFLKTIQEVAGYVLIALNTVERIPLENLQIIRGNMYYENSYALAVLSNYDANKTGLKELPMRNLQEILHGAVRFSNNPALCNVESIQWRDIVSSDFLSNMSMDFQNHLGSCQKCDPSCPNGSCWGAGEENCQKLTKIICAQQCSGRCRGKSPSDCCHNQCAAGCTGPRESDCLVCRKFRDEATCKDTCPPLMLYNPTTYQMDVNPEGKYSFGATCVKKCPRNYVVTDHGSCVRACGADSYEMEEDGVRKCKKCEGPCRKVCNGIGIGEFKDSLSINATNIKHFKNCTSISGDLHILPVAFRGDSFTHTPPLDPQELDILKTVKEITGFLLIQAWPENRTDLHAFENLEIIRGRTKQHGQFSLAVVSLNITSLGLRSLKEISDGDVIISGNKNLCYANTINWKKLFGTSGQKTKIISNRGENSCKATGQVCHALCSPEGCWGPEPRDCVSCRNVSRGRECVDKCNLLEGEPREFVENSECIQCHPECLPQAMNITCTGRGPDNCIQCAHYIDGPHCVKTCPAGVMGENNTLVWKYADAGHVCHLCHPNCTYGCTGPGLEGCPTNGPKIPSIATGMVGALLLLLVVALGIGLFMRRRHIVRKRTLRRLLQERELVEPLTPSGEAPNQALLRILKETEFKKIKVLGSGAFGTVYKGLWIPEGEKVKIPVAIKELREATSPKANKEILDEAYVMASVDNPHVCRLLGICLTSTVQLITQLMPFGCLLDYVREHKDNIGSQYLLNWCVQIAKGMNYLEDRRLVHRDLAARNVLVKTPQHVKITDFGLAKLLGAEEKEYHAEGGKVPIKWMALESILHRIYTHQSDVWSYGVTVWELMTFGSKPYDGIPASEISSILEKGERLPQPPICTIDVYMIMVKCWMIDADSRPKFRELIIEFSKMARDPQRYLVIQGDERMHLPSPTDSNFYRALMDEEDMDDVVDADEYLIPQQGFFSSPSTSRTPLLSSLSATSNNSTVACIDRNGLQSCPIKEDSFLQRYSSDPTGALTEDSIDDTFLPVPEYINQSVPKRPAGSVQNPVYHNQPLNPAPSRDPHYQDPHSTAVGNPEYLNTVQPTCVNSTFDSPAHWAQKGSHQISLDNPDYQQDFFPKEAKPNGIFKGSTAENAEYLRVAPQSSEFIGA
Calcium/calmodulin-dependent protein kinase type II subunit delta (Homo sapiens), sequence (Q13557 whole entry): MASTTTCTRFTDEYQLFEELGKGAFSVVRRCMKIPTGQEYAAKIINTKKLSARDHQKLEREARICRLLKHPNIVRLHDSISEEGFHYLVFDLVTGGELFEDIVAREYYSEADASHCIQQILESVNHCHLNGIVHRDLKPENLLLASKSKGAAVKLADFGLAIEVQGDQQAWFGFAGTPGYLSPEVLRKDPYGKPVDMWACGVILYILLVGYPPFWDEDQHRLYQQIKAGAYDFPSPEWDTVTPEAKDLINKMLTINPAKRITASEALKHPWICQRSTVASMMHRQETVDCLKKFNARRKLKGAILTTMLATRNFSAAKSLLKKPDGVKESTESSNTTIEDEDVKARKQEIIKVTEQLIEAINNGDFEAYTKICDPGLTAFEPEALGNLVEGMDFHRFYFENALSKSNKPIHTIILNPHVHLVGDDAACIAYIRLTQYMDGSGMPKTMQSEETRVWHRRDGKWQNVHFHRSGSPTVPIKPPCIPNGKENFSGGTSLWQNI
Ribosomal protein S6 kinase alpha-5 (Homo sapiens), sequence (O75582 whole entry, looked up): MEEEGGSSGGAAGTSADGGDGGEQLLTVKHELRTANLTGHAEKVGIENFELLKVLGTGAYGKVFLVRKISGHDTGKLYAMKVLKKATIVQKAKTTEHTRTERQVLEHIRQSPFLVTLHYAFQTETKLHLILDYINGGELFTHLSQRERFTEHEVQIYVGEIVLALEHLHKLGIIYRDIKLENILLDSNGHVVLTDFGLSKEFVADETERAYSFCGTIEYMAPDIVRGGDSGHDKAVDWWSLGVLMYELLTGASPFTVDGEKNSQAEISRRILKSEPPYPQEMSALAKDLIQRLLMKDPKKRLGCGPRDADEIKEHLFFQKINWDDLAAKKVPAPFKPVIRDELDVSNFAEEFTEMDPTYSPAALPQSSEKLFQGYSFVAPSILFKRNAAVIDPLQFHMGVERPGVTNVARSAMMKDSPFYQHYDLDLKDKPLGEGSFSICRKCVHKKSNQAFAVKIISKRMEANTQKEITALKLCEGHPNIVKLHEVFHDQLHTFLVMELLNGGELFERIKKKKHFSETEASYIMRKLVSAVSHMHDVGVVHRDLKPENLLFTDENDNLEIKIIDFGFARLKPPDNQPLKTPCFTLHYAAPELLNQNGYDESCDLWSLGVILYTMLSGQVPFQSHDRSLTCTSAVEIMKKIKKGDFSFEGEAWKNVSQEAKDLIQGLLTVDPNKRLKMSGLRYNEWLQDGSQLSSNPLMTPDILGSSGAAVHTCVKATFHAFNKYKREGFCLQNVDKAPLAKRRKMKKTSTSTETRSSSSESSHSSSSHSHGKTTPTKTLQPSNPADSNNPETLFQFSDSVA

## NCCc1ccc(-c2ncnc3[nH]cnc23)cc1
[1]
  inhibition: 79%
[2]
  inhibition: 97%
[3]
  inhibition: 76%

## Clc1ccc(C2(c3ccc(-c4ncnc5[nH]cnc45)cc3)CCNCC2)cc1
[4]
  inhibition: 51%
[5]
  inhibition: 11%

## NC1CCN(c2ncnc3[nH]ccc23)CC1
[6]
  inhibition: 3.5%

## c1nc(N2CCOCC2)c2nc[nH]c2n1
[7]
  inhibition: 93%
[8]
  inhibition: 63.5%

## NCC1CN(c2ncnc3[nH]c4cnccc4c23)CCO1 (stereo not given)
[9]
  inhibition: 80%

## CNCc1ccc(-c2ncnc3[nH]cnc23)cc1
[10]
  inhibition: 45.5%
